pIC50: −log10 of the molar value. Where two headings read alike, the source gives them in different places.
Columns and labels:
[1] = biological target: full-length human PRMT1 isoform 1 (GST-tagged) (Homo sapiens, UniProt Q99873); test: PRMT1 Biochemical Assay (3H-SAM Flashplate, peptide substrate)
Source text: General Materials. S-adenosylmethionine (SAM), S-adenosylhomocysteine (SAH), bicine, Tween20, dimethylsulfoxide (DMSO), bovine skin gelatin (BSG), and Tris(2-carboxyethyl)phosphine hydrochloride solution (TCEP) were purchased from Sigma-Aldrich at the highest level of purity possible. ^3H-SAM was purchase from American Radiolabeled Chemicals with a specific activity of 80 Ci/mmol. 384-well streptavidin Flashplates were purchased from PerkinElmer.
Protein Expression. Recombinant baculovirus were generated according to Bac-to-Bac kit instructions (Life Technologies). […] Infections were carried out at 27° C. for 48 hours, harvested by centrifugation, and stored at −80° C. for purification.
Protein Purification. […] GST-tagged PRMT1 was eluted with 50 mM Tris, 2 mM glutathione, pH 7.8, dialysed in buffer A and concentrated to 1 mg/mL.
General Procedure for PRMT1 Enzyme Assays on Peptide Substrates. The assays were all performed in a buffer consisting of 20 mM Bicine (pH=7.6), 1 mM TCEP, 0.005% BSG, and 0.002% Tween 20, prepared on the day of use. […] DMSO (1 ul) was added to Columns 11, 12, 23, 24, rows A-H for the maximum signal control and 1 ul of SAH, a known product and inhibitor of PRMT1, was added to columns 11, 12, 23, 24, rows I-P for the minimum signal control. A cocktail (40 ul) containing the PRMT1 enzyme was added by Multidrop Combi (Thermo-Fisher). The compounds were allowed to incubate with PRMT1 for 30 min at room temperature, then a cocktail (10 ul) containing SAM and peptide was added to initiate the reaction (final volume=51 ul). […] The assays were stopped by the addition of non-radiolabeled SAM (10 ul) to a final concentration of 300 uM, which dilutes the ^3H-SAM to a level where its incorporation into the peptide substrate is no longer detectable. 50 ul of the reaction in the 384-well polypropylene plate was then transferred to a 384-well Flashplate and the biotinylated peptides were allowed to bind to the streptavidin surface for at least 1 hour before being washed once with 0.1% Tween20 in a Biotek ELx405 plate washer. The plates were then read in a PerkinElmer TopCount plate reader to measure the quantity of ^3H-labeled peptide bound to the Flashplate surface, measured as disintegrations per minute (dpm) or alternatively, referred to as counts per minute (cpm).
Where dpm=disintegrations per minute, cmpd=signal in assay well, and min and max are the respective minimum and maximum signal controls.
Where top and bottom are the normally allowed to float, but may be fixed at 100 or 0 respectively in a 3-parameter fit. The Hill Coefficient normally allowed to float but may also be fixed at 1 in a 3-parameter fit. Y is the % inhibition and X is the compound concentration.

[2] = system: mono-methyl arginine in RKO cells; test: RKO Methylation Assay, In Cell Western (ICW) for detection of mono-methyl arginine and DNA content; assay type: cell-based; conditions: Homo sapiens, RKO, 72 h, RKO cells, read-out: In Cell Western EC30
Source text: RKO adherent cells were purchased from ATCC (American Type Culture Collection), Manassas, Va., USA. DMEM/Glutamax medium, penicillin-streptomycin, heat inactivated fetal bovine serum, 0.05% trypsin and D-PBS were purchased from Life Technologies, Grand Island, N.Y., USA. Odyssey blocking buffer, 800 CW goat anti-rabbit IgG (H+L) antibody, and Licor Odyssey infrared scanner were purchased from Licor Biosciences, Lincoln, Nebr., USA. Mono-methyl arginine antibody was purchased from Cell Signaling Technology, Danvers, Mass., USA. Methanol was purchased from VWR, Franklin, Mass., USA. 10% Tween 20 was purchased from KPL, Inc., Gaithersburg, Md., USA. DRAQ5 was purchased from Biostatus Limited, Leicestershire, UK.
RKO adherent cells were maintained in growth medium (DMEM/Glutamax medium supplemented with 10% v/v heat inactivated fetal bovine serum and 100 units/mL penicillin-streptomycin) and cultured at 37° C. under 5% CO2.
Cell treatment, In Cell Western (ICW) for detection of mono-methyl arginine and DNA content. […] Compound (100 nL) from a 96-well source plate was added directly to 384 well cell plate. Plates were incubated at 37° C., 5% CO2 for 72 hours. After three days of incubation, plates were brought to room temperature outside of the incubator for ten minutes and blotted on paper towels to remove cell media. 50 μL of ice cold 100% methanol was added directly to each well and incubated for 30 min at room temperature. After 30 min, plates were transferred to a Biotek EL406 plate washer and washed 2 times with 100 μL per well of wash buffer (1×PBS). Next 60 μL per well of Odyssey blocking buffer (Odyssey Buffer with 0.1% Tween 20 (v/v)) were added to each plate and incubated 1 hour at room temperature. Blocking buffer was removed and 20 μL per well of primary antibody was added (mono-methyl arginine diluted 1:200 in Odyssey buffer with 0.1% Tween 20 (v/v)) and plates were incubated overnight (16 hours) at 4° C. Plates were washed 5 times with 100 μL per well of wash buffer. […] The plates were washed 5 times with 100 μL per well wash buffer then 2 times with 100 μL per well of water. Plates were allowed to dry at room temperature then imaged on the Licor Odyssey machine which measures integrated intensity at 700 nm and 800 nm wavelengths. Both 700 and 800 channels were scanned.
Calculations: First, the ratio for each well was determined by:
Each plate included fourteen control wells of DMSO only treatment (minimum activation) as well as fourteen control wells for maximum activation treated with 20 μM of a reference compound. The average of the ratio values for each control type was calculated and used to determine the percent activation for each test well in the plate. Reference compound was serially diluted three-fold in DMSO for a total of nine test concentrations, beginning at 20 μM. Percent activation was determined and EC30 curves were generated using triplicate wells per concentration of compound.

[3] = single experiment or average of multiple experiments
[4] = 72 hours compound incubation, mono-methyl arginine signal normalised to DNA content (DRAQ5), percent activation vs 20 μM reference compound
[5] = 72 hours incubation, mono-methyl arginine signal normalised to DNA content, single experiment or average of multiple experiments

Sequence of full-length human PRMT1 isoform 1 (GST-tagged) (Q99873 with tags, fused parts or gaps): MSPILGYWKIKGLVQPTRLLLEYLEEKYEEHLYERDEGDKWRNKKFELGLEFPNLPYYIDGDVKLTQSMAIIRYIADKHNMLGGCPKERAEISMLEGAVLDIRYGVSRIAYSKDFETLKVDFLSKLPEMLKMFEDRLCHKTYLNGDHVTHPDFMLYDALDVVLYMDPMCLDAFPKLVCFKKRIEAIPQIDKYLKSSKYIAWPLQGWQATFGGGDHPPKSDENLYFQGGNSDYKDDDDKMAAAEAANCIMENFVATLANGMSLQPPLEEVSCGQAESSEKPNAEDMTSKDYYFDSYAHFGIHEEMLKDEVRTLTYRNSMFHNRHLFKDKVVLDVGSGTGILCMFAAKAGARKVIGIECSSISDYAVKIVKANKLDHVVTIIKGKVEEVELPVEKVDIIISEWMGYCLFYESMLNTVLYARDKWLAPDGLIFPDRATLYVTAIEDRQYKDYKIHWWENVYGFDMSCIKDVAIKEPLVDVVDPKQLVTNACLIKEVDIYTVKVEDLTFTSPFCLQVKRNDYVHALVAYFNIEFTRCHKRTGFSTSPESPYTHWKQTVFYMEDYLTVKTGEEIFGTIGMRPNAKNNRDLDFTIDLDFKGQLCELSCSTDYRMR

| SMILES | pIC50 [1] | pIC50 [1, 3] | EC30 [2, 4] | EC30 [2, 5] |
| --- | --- | --- | --- | --- |
| CNCCN(C)Cc1c[nH]nc1[C@H]1CC[C@@]2(CCN(CC(C)C)C2=O)CC1 [Compound 129] | > 7.00 | 7.63 | < 3 µM | 0.0045 µM |
| CCOC1CC(OCC)CC(c2n[nH]cc2CN(C)CCNC)C1 (centres unmarked) [Compound 132] | 6.00 to 7.00 | 6.20 | – | 0.0038 µM |
| CNCCN(C)Cc1c[nH]nc1C1CCC(OCCOc2ccccc2)CC1 (centres unmarked) [Compound 136] | > 7.00 | 8.54 | < 3 µM | 0.035 µM |
| CNCCN(C)Cc1c[nH]nc1C1CCC2(CCCCO2)CC1 (centres unmarked) [Compound 137] | > 7.00 | 8.14 | < 3 µM | 0.015 µM |
| CNCCN(C)Cc1c[nH]nc1[C@H]1CC[C@H](OC2CCCCC2)CC1 [Compound 139] | > 7.00 | 7.52 | < 3 µM | 0.627 µM |
| CNCCN(C)Cc1c[nH]nc1[C@H]1CC[C@@H](OC2CCCCC2)CC1 [Compound 140] | > 7.00 | 7.81 | < 3 µM | 0.164 µM |
| CNCCN(C)Cc1c[nH]nc1[C@H]1CC[C@@]2(CCOC2)CC1 [Compound 141] | > 7.00 | 7.97 | < 3 µM | 0.132 µM |
| CNCCN(C)Cc1c[nH]nc1[C@H]1CC[C@]2(CCOC2)CC1 [Compound 142] | > 7.00 | 8.14 | < 3 µM | 0.052 µM |
| CNCCN(C)Cc1c[nH]nc1[C@H]1CC[C@@]2(CCCO2)CC1 [Compound 143] | > 7.00 | 7.97 | < 3 µM | 0.059 µM |
| CNCCN(C)Cc1c[nH]nc1C1CCC2(CC1)CC2 [Compound 144] | > 7.00 | 7.67 | < 3 µM | 0.063 µM |
| CNCCN(C)Cc1c[nH]nc1C1CCC2(CC1)CN(CC(C)C)C(=O)N2C (centres unmarked) [Compound 145] | > 7.00 | 7.58 | < 3 µM | 2.3 µM |
| CNCCN(C)Cc1c[nH]nc1C1CCC2(CC1)CC(=O)N(Cc1ccc(OC)cc1)C2 (centres unmarked) [Compound 146] | > 7.00 | 7.85 | < 3 µM | 0.16 µM |
| CNCCN(C)Cc1c[nH]nc1C1CCC2(CC1)CNC(=O)C2 (centres unmarked) [Compound 147] | > 7.00 | 7.74 | 3.01 to 12 µM | 8.6 µM |
| CC[C@H]1CC[C@H](c2n[nH]cc2CN(C)CCNC)CC1 [Compound 148] | > 7.00 | 8.32 | < 3 µM | 0.016 µM |
| CNCCN(C)Cc1c[nH]nc1C1CCC(C)CC1 (centres unmarked) [Compound 149] | > 7.00 | 8.35 | < 3 µM | 0.106 µM |
| CNCCN(C)Cc1c[nH]nc1C1CCC2(CC1)OCC(C(C)C)CO2 (centres unmarked) [Compound 150] | > 7.00 | 7.36 | < 3 µM | 0.256 µM |
| CNCCN(C)Cc1c[nH]nc1C1CCC2(CC1)CN(C)C(=O)N2CC(C)C (centres unmarked) [Compound 151] | > 7.00 | 7.43 | < 3 µM | 0.705 µM |

| SMILES | pIC50 [1] | pIC50 [1, 3] | EC30 [2, 4] | EC30 [2, 5] |
| --- | --- | --- | --- | --- |
| CNCCN(C)Cc1c[nH]nc1C1CCC2(CC1)CCN(C)C2=O (centres unmarked) [Compound 152] | > 7.00 | 7.85 | < 3 µM | 0.119 µM |
| CNCCN(C)Cc1c[nH]nc1C1CCC(OCC(C)C)CC1 (centres unmarked) [Compound 153] | > 7.00 | 7.63 | < 3 µM | 0.129 µM |
| CCN1CC2(CCC(c3n[nH]cc3CN(C)CCNC)CC2)N(C)C1=O (centres unmarked) [Compound 154] | > 7.00 | 7.75 | < 3 µM | 1.79 µM |
| CNCCN(C)Cc1c[nH]nc1[C@H]1CC[C@]2(CC1)CC(=O)N(CC(C)C)C2 [Compound 155] | > 7.00 | 7.50 | 3.01 to 12 µM | 4.08 µM |
| CNCCN(C)Cc1c[nH]nc1[C@H]1CC[C@@]2(CC1)CC(=O)N(CC(C)C)C2 [Compound 156] | > 7.00 | 7.76 | < 3 µM | 1.36 µM |
| CNCCN(C)Cc1c[nH]nc1C1CCC2(CC1)CC(=O)N(C)C2 (centres unmarked) [Compound 157] | > 7.00 | 7.73 | < 3 µM | 2.49 µM |
| CCOC1CC(OCC)CC2(CCC(c3n[nH]cc3CN(C)CCNC)CC2)C1 (centres unmarked) [Compound 159] | > 7.00 | 7.71 | < 3 µM | 0.063 µM |
| CNCCN(C)Cc1c[nH]nc1C1CCC2(CC1)OCCCO2 [Compound 160] | > 7.00 | 7.66 | < 3 µM | 0.166 µM |
| CNCCN(C)Cc1c[nH]nc1C1CCC2(CC1)C(=O)NC(=O)N2C (centres unmarked) [Compound 161] | > 7.00 | 7.59 | 3.01 to 12 µM | 5.02 µM |
| CCN1C(=O)N(C)CC12CCC(c1n[nH]cc1CN(C)CCNC)CC2 (centres unmarked) [Compound 162] | > 7.00 | 7.41 | 3.01 to 12 µM | 6.68 µM |
| CNCCN(C)Cc1c[nH]nc1C1CCC2(CC1)CCN(CCC(C)C)C2=O (centres unmarked) [Compound 163] | > 7.00 | 7.76 | < 3 µM | 0.066 µM |
| CNCCN(C)Cc1c[nH]nc1C1CCC2(CC1)CCN(CC(C)C)C2=O (centres unmarked) [Compound 164] | > 7.00 | 7.71 | < 3 µM | 0.078 µM |
| CNCCN(C)Cc1c[nH]nc1C1CCC2(CC1)CC(=O)N(CCC(C)C)C2 (centres unmarked) [Compound 165] | > 7.00 | 7.75 | < 3 µM | 0.51 µM |
| CNCCN(C)Cc1c[nH]nc1[C@H]1CC[C@@H](COC)CC1 [Compound 166] | > 7.00 | 7.74 | < 3 µM | 0.083 µM |
| CNCCN(C)Cc1c[nH]nc1[C@H]1CC[C@H](COC)CC1 [Compound 167] | > 7.00 | 7.96 | < 3 µM | 0.018 µM |
| CCOC1CC2(CCC(c3n[nH]cc3CN(C)CCNC)CC2)CC1OCC (centres unmarked) [Compound 168] | > 7.00 | 7.70 | < 3 µM | 0.085 µM |

Source: US11512053B2, “Arginine methyltransferase inhibitors and uses thereof” (priority 2013, dated 2022)
